From paper PMC8843100, “Development of newly synthesised quinazolinone-based CDK2 inhibitors with potent efficacy against melanoma” (Journal of Enzyme Inhibition and Medicinal Chemistry, 2022)

Assays:
[1] = system: MCF7; test: NCI-60 single dose screen, sulforhodamine B; format: cell-based, human; conditions: Breast cancer MCF7; single dose 10^−5 M
Description: (§1) In this research, all of the newly synthesised quinazolinones were subjected to in vitro anticancer screening by the National Cancer Institute (USA) against 60 different human cell lines including leukaemia, non-small cell lung cancer, colon cancer, CNS cancer, melanoma, ovarian cancer, renal cancer, prostate cancer, and breast cancer. The tested compounds were evaluated at a single dose (10^−5 M). […] Regarding the benzenesulfonamide counterparts, the introduction of an electron-withdrawing group on the benzenesulfonamide moiety increased the inhibitory activity on the glioblastoma cell line SNB-75 as depicted by the chloro derivative 5c (GI% = 63.09) which was higher than that of the unsubstituted derivative 5a (GI% = 40.06) and the methyl derivative 5b (GI% = 33.03).
(§2) 1. Cytotoxicity screening against a panel of 60 human tumor cell lines
(§3) All the compounds were selected for NCI-60 Human Tumor Cell Lines Screen by the Developmental Therapeutics Program (DTP) at the National Cancer Institute (NCI), Maryland, USA. The operation of this screen utilizes 60 different human tumor cell lines, representing leukemia, non-small-cell lung cancer, colon cancer, CNS cancer, melanoma, ovarian cancer, renal cancer, prostate cancer and breas t cancer.
(§4) The compounds were supplied as dry powder and a single concentration is tested in all 60 cell lines at a single dose of 10 µM solution in dimethyl sulfoxide (DMSO) using Sulforhodamine B assay. Briefly, cells are seeded in 96 well plates at an appropriate density and incubated for 1 day. After 1 day, some of the plates are processed to determine the density time zero. To the remaining plates, compounds are added at 10 µM concentration. Plates are incubated a further 2 days, then fixed and staine d with sulphorhodamine B. Growth inhibition is calculated relative to cells without drug treatment and the time zero control. The use of a time zero control allows the determination of cell kill as well as net growth inhibition.
(§5) 2. Detection of IC50 against MDA-MB-435, SNB-75 cell lines and normal cell line WI -38.
(§6) Antiproliferative activities of 5c in melanoma cell line MDA-MB-435, glioblastoma cell line SNB-75 and normal cell line WI -38 and that of 8a in melanoma cell line MDA-MB-435 and normal cell line WI-38 were measured spectrophotometrically using in vitro MTT based toxicology assay kit (catalog no. M -5655, M-8910) (Sigma Aldrich), according to the manufacturer’s protocol. The three examined cell lin es were obtained from American Type Culture Collection (ATCC). Briefly, cells were platted (cells density 1.2 – 1.8 × 10,000 cells/well) in a volume of 100 µl complete growth medium + 100 μl of the tested compound per well in a 96-well plate for 48 h before the MTT assay. The cultures were removed from incubator into laminar flow hood then each vial of MTT [M-5655] should be reconstituted with 3 ml of medium or balanced salt solution without phenol red and serum. Reconstituted MTT was added in an amount equal to […]

[2] = system: IGROV1; test: NCI-60 single dose screen, sulforhodamine B; format: cell-based, human; conditions: Ovarian cancer IGROV1; single dose 10^−5 M
Description: as §1, §2, §3, §4, §5, §6

[3] = system: HL-60(TB); test: NCI-60 single dose screen, sulforhodamine B; format: cell-based, human; conditions: Leukaemia HL-60(TB); single dose 10^−5 M
Description: as §1, §2, §3, §4, §5, §6

[4] = system: MDA-MB-468; test: NCI-60 single dose screen, sulforhodamine B; format: cell-based, human; conditions: Breast cancer MDA-MB-468; single dose 10^−5 M
Description: as §1, §2, §3, §4, §5, §6

[5] = system: SK-OV-3; test: NCI-60 single dose screen, sulforhodamine B; format: cell-based, human; conditions: Ovarian cancer SK-OV-3; single dose 10^−5 M
Summary of the method: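 A one-concentration test: 10 µM, from dry powder dissolved in DMSO. Plates got compound one day post-seeding and were incubated 2 more days, then fixed and SRB-stained.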

[6] = system: glioblastoma cell line SNB-75; test: Detection of IC50, MTT assay; format: cell-based; conditions: Homo sapiens, read-out: IC50 (µM)±SD, 50% inhibition of cell viability, Glioblastoma SNB-75, 48 h
Description: as §5
as §6, with “96-well” for “96-well plate for 48 h before the MTT assay. The cultures were removed from incubator into laminar flow hood then each vial of MTT [M-5655] should be reconstituted with 3 ml of medium or balanced salt solution without phenol red and serum. Reconstituted MTT was added in an amount equal to”
(§7) salt solution without phenol red and serum.

[7] = system: melanoma cell line MDA-MB-435; test: Detection of IC50, MTT assay; format: cell-based; conditions: Homo sapiens, read-out: IC50 (µM)±SD, 50% inhibition of cell viability, Melanoma MDA-MB-435, 48 h
Description: as §5
as §6, with “96-well” for “96-well plate for 48 h before the MTT assay. The cultures were removed from incubator into laminar flow hood then each vial of MTT [M-5655] should be reconstituted with 3 ml of medium or balanced salt solution without phenol red and serum. Reconstituted MTT was added in an amount equal to”
as §7

[8] = target: T1, CDK2 (Homo sapiens, UniProt P24941); test: CDK2 inhibition assay, colorimetric 96-well kit (BPS Bioscience); format: biochemical; conditions: in vitro kinase inhibition; read-out: IC50 (µM) ± SD against CDK2
T1 construct: purchased BPS Bioscience 79599
Description: It was reported that CDK2 is overexpressed in melanoma[44]^,[45].
CDK2 enzyme inhibition activity was measured for the quinazolinones 5c and 8a using a colorimetric 96-well CDK2 assay kit (BPS Bioscience) (catalog no. 79599), according to the manufacturer's protocol. All the IC50 values were calculated using GraphPad Prism 7.0 Software.
Figure S1. The pharmacokinetic profile of compound 5c using SwissADME web server.
(1 picture or pasted object on this page, not shown here)

[9] = system: normal fibroblast cells WI-38; test: Cytotoxic activity in normal cells, MTT assay; format: cell-based; conditions: Homo sapiens, WI-38 normal cells, 48 h, read-out: IC50 (µM) ± SD WI-38
Description: as §5
as §6, with “96-well” for “96-well plate for 48 h before the MTT assay. The cultures were removed from incubator into laminar flow hood then each vial of MTT [M-5655] should be reconstituted with 3 ml of medium or balanced salt solution without phenol red and serum. Reconstituted MTT was added in an amount equal to”
as §7

Row | Compound | GI% at 10^−5 M [1] | GI% at 10^−5 M [2] | GI% at 10^−5 M [3] | GI% at 10^−5 M [4] | GI% at 10^−5 M [5] | IC50 [6] | IC50 [7] | IC50 [8] | IC50 [9]
1 | O=C(CNn1c(COc2ccccc2)nc2ccccc2c1=O)Nc1ccccc1 [Compound 4a, 2-((4-oxo-2-(phenoxymethyl)quinazolin-3(4H)-yl)amino)-N-phenylacetamide] | 15.7% | 19.54% | – (– means GI < 10%) | – (– means GI < 10%) | – | – | – | – | –
2 | COc1ccc(NC(=O)CNn2c(COc3ccccc3)nc3ccccc3c2=O)cc1 [Compound 4b, N-(4-methoxyphenyl)-2-((4-oxo-2-(phenoxymethyl)quinazolin-3(4H)-yl)amino)acetamide] | 13.20% | 6.78% | – (– means GI < 10%) | – (– means GI < 10%) | – | – | – | – | –
3 | O=C(CNn1c(COc2ccccc2)nc2ccccc2c1=O)Nc1ccc(Cl)cc1 [Compound 4c, N-(4-chlorophenyl)-2-((4-oxo-2-(phenoxymethyl)quinazolin-3(4H)-yl)amino)acetamide] | 10.05% | 19.62% | – (– means GI < 10%) | 11.13% | 4.95% | – | – | – | –
4 | O=c1c2ccccc2nc(COc2ccccc2)n1NS(=O)(=O)c1ccccc1 [Compound 5a, N-(4-oxo-2-(phenoxymethyl)quinazolin-3(4H)-yl)benzenesulfonamide] | 14.31% | 16.06% | – (– means GI < 10%) | – (– means GI < 10%) | – | – | – | – | –
5 | Cc1ccc(S(=O)(=O)Nn2c(COc3ccccc3)nc3ccccc3c2=O)cc1 [Compound 5b, 4-methyl-N-(4-oxo-2-(phenoxymethyl)quinazolin-3(4H)-yl)benzenesulfonamide] | 11.54% | 21.58% | – (– means GI < 10%) | – (– means GI < 10%) | −4.74% | – | – | – | –
6 | O=c1c2ccccc2nc(COc2ccccc2)n1NS(=O)(=O)c1ccc(Cl)cc1 [Compound 5c, 4-chloro-N-(4-oxo-2-(phenoxymethyl)quinazolin-3(4H)-yl)benzenesulfonamide] | 58.11% | 38.26% | 24.32% | 59.61% | – | 8.62 ± 0.13 µM | 3.03 ± 0.38 µM | 0.63 ± 0.022 µM | 62.5 ± 3.5 µM
7 | COc1cc(C=Nn2c(COc3ccccc3)nc3ccccc3c2=O)ccc1O [Compound 6a, 3-((4-hydroxy-3-methoxybenzylidene)amino)-2-(phenoxymethyl)quinazolin-4(3H)-one] | 22.94% | – (– means GI < 10%) | – (– means GI < 10%) | – (– means GI < 10%) | – | – | – | – | –
8 | O=c1c2ccccc2nc(COc2ccccc2)n1N=CC=Cc1ccccc1 [Compound 6b, 2-(phenoxymethyl)-3-((3-phenylallylidene)amino)quinazolin-4(3H)-one] | 16.22% | – (– means GI < 10%) | – (– means GI < 10%) | 10.89% | – | – | – | – | –
9 | CN1CCN(CC(=O)Nn2c(COc3ccccc3)nc3ccccc3c2=O)CC1 [Compound 8a, 2–(4-methylpiperazin-1-yl)-N-(4-oxo-2-(phenoxymethyl)quinazolin-3(4H)-yl)acetamide] | 57.64% | 26.87% | 19.74% | 49.06% | 22.99% | – | 6.22 ± 0.53 µM | 1.74 ± 0.062 µM | 37.3 ± 2.1 µM
10 | O=C(CN1CCN(c2ccccc2)CC1)Nn1c(COc2ccccc2)nc2ccccc2c1=O [Compound 8b, N-(4-oxo-2-(phenoxymethyl)quinazolin-3(4H)-yl)-2–(4-phenylpiperazin-1-yl)acetamid] | – (– means GI < 10%) | – (– means GI < 10%) | – (– means GI < 10%) | – (– means GI < 10%) | – | – | – | – | –
11 | COc1ccc(N2CCN(CC(=O)Nn3c(COc4ccccc4)nc4ccccc4c3=O)CC2)cc1 [Compound 8c, 2–(4-(4-methoxyphenyl)piperazin-1-yl)-N-(4-oxo-2-(phenoxymethyl)quinazolin-3(4H)-yl)acetamide] | – (– means GI < 10%) | – (– means GI < 10%) | – (– means GI < 10%) | – (– means GI < 10%) | – | – | – | – | –
